Test results reported in PMC11392244, “Characterization of a unique catechol-O-methyltransferase as a molecular drug target in parasitic filarial nematodes” (PLOS Neglected Tropical Diseases, 2024).
“And” between values parts separate entries of the source, which are not always exact repeats. Equal values may be shown once. Read-outs that look alike come from different tables or passages of the source.

Tests used:
DiMT protein = format: biochemical, Dirofilaria immitis; details: for IC50: read-out: IC 50 (μM ± SEM)
D. immitis microfilariae = assay: In vitro efficacy against live D. immitis microfilariae (motility, completely immotile %); format: cell-based, Dirofilaria immitis; details: for Completely Immotile Microfilariae (%): single experiments; for effect on microfilariae: up to 120 h of culture
mammalian cells = details: read-out: Cytotoxicity IC50, ref Zhang et al., [30]; cited from earlier work

CO[C@@]12[C@H](COC(N)=O)C3=C(C(=O)C(C)=C(N)C3=O)N1C[C@H]1[C@@H]2N1C (stereo partly shown) [NSC56410]
Mean Percent Inhibition (DiMT protein; 50 µM): 18.0% and 26.7% and 20.5%
Mean Percent Inhibition, Average (DiMT protein; 50 µM): 21.7%
Mean Percent Inhibition (DiMT protein; 100 µM): 26.6% and 33.3% and 21.3%
Mean Percent Inhibition, Average (DiMT protein; 100 µM): 27.1%
Mean Percent Inhibition (DiMT protein; 150 µM): 31.0% and 35.0% and 25.0%
Mean Percent Inhibition, Average (DiMT protein; 150 µM): 30.3%
Mean Percent Inhibition (DiMT protein; 200 µM): 34.6% and 41.9% and 31.9%
Mean Percent Inhibition, Average (DiMT protein; 200 µM): 36.1%
Mean Percent Inhibition (DiMT protein; 250 µM): 41.2% and 38.8% and 51.8%
Mean Percent Inhibition, Average (DiMT protein; 250 µM): 43.9%
Mean Percent Inhibition (DiMT protein; 300 µM): 48.3% and 48.6% and 46.0%
Mean Percent Inhibition, Average (DiMT protein; 300 µM): 47.6%
Mean Percent Inhibition (DiMT protein; 350 µM): 53.8% and 59.3% and 53.7%
Mean Percent Inhibition, Average (DiMT protein; 350 µM): 55.6%
Mean Percent Inhibition (DiMT protein; 400 µM): 62.5% and 63.8%
Mean Percent Inhibition, Average (DiMT protein; 400 µM): 62.9%
IC50 (DiMT protein): 300 ± 2.5 µM
Mean completely Immotile (%) (D. immitis microfilariae; 25 µM, 0 h): 0%
Mean completely Immotile (%) (D. immitis microfilariae; 25 µM, 24 h): 2.33%
Mean completely Immotile (%) (D. immitis microfilariae; 25 µM, 48 h): 7.67%
Mean completely Immotile (%) (D. immitis microfilariae; 25 µM, 72 h): 12.5%
Mean completely Immotile (%) (D. immitis microfilariae; 25 µM, 96 h): 30.5%
Mean completely Immotile (%) (D. immitis microfilariae; 25 µM, 120 h): 45%
Mean completely Immotile (%) (D. immitis microfilariae; 50 µM, 0 h): 0%
Mean completely Immotile (%) (D. immitis microfilariae; 50 µM, 24 h): 13%
Mean completely Immotile (%) (D. immitis microfilariae; 50 µM, 48 h): 21.33%
Mean completely Immotile (%) (D. immitis microfilariae; 50 µM, 72 h): 54.33%
Mean completely Immotile (%) (D. immitis microfilariae; 50 µM, 96 h): 79.33%
Mean completely Immotile (%) (D. immitis microfilariae; 50 µM, 120 h): 97.67%
Mean completely Immotile (%) (D. immitis microfilariae; 75 µM, 0 h): 0%
Mean completely Immotile (%) (D. immitis microfilariae; 75 µM, 24 h): 38.67%
Mean completely Immotile (%) (D. immitis microfilariae; 75 µM, 48 h): 59.33%
Mean completely Immotile (%) (D. immitis microfilariae; 75 µM, 72 h): 86%
Mean completely Immotile (%) (D. immitis microfilariae; 75 µM, 96 h): 98.33%
Mean completely Immotile (%) (D. immitis microfilariae; 75 µM, 120 h): 100%
Mean completely Immotile (%) (D. immitis microfilariae; 100 µM, 0 h): 0%
Mean completely Immotile (%) (D. immitis microfilariae; 100 µM, 24 h): 61%
Mean completely Immotile (%) (D. immitis microfilariae; 100 µM, 48 h): 77.67%
Mean completely Immotile (%) (D. immitis microfilariae; 100 µM, 72 h): 98%
Mean completely Immotile (%) (D. immitis microfilariae; 100 µM, 96 h): 100%
Mean completely Immotile (%) (D. immitis microfilariae; 100 µM, 120 h): 100%
EC50 (D. immitis microfilariae; Dirofilaria immitis, 96 h, read-out: Anti-parasitic EC50 (μM), 96 h post-treatment): 32.1 µM
EC50 (D. immitis microfilariae; read-out: Anti-parasitic EC50, 96 h post-treatment): 32.2 µM
Completely Immotile Microfilariae (%) (D. immitis microfilariae; 25 µM, 0 h): 0%
Completely Immotile Microfilariae (%) (D. immitis microfilariae; 25 µM, 24 h): 2% and 4% and 1%
Completely Immotile Microfilariae (%) (D. immitis microfilariae; 25 µM, 48 h): 8% and 10% and 5%
Completely Immotile Microfilariae (%) (D. immitis microfilariae; 25 µM, 72 h): 15% and 12.5% and 10%
Completely Immotile Microfilariae (%) (D. immitis microfilariae; 25 µM, 96 h): 35% and 29.5% and 27%
Completely Immotile Microfilariae (%) (D. immitis microfilariae; 25 µM, 120 h): 50% and 44% and 41%
Completely Immotile Microfilariae (%) (D. immitis microfilariae; 50 µM, 0 h): 0%
Completely Immotile Microfilariae (%) (D. immitis microfilariae; 50 µM, 24 h): 15% and 11.5% and 12.5%
Completely Immotile Microfilariae (%) (D. immitis microfilariae; 50 µM, 48 h): 23% and 21% and 20%
Completely Immotile Microfilariae (%) (D. immitis microfilariae; 50 µM, 72 h): 56% and 50% and 57%
Completely Immotile Microfilariae (%) (D. immitis microfilariae; 50 µM, 96 h): 80% and 76% and 82%
Completely Immotile Microfilariae (%) (D. immitis microfilariae; 50 µM, 120 h): 100% and 95% and 98%
Completely Immotile Microfilariae (%) (D. immitis microfilariae; 75 µM, 0 h): 0%
Completely Immotile Microfilariae (%) (D. immitis microfilariae; 75 µM, 24 h): 36% and 40%
Completely Immotile Microfilariae (%) (D. immitis microfilariae; 75 µM, 48 h): 55% and 60% and 63%
Completely Immotile Microfilariae (%) (D. immitis microfilariae; 75 µM, 72 h): 83% and 88% and 87%
Completely Immotile Microfilariae (%) (D. immitis microfilariae; 75 µM, 96 h): 100% and 95%
Completely Immotile Microfilariae (%) (D. immitis microfilariae; 75 µM, 120 h): 100%
Completely Immotile Microfilariae (%) (D. immitis microfilariae; 100 µM, 0 h): 0%
Completely Immotile Microfilariae (%) (D. immitis microfilariae; 100 µM, 24 h): 60% and 58% and 65%
Completely Immotile Microfilariae (%) (D. immitis microfilariae; 100 µM, 48 h): 75% and 78% and 80%
Completely Immotile Microfilariae (%) (D. immitis microfilariae; 100 µM, 72 h): 95% and 100% and 99%
Completely Immotile Microfilariae (%) (D. immitis microfilariae; 100 µM, 96 h): 100%
Completely Immotile Microfilariae (%) (D. immitis microfilariae; 100 µM, 120 h): 100%
effect on microfilariae (D. immitis microfilariae): killing effect
IC50 (mammalian cells): 188 µM

CO[C@@H]1/C=C\O[C@]2(C)Oc3c(C)c(O)c4c(O)c(c(CN(C)C)c(O)c4c3C2=O)NC(=O)/C(C)=C\C=C[C@@H](C)[C@@H](O)[C@H](C)[C@@H](O)[C@H](C)[C@H](OC(C)=O)[C@@H]1C [NSC145612]
Mean Percent Inhibition (DiMT protein; 50 µM): 68.4% and 38.5% and 36.2%
Mean Percent Inhibition, Average (DiMT protein; 50 µM): 47.7%
Mean Percent Inhibition (DiMT protein; 100 µM): 57.6% and 50.0% and 61.2%
Mean Percent Inhibition, Average (DiMT protein; 100 µM): 56.3%
Mean Percent Inhibition (DiMT protein; 150 µM): 66.2% and 62.4% and 82.9%
Mean Percent Inhibition, Average (DiMT protein; 150 µM): 70.5%
Mean Percent Inhibition (DiMT protein; 200 µM): 77.2% and 75.4% and 75.6%
Mean Percent Inhibition, Average (DiMT protein; 200 µM): 76.1%
Mean Percent Inhibition (DiMT protein; 250 µM): 84.0% and 87.6% and 81.7%
Mean Percent Inhibition, Average (DiMT protein; 250 µM): 84.4%
IC50 (DiMT protein): 62.1 ± 1.8 µM
Mean completely Immotile (%) (D. immitis microfilariae; 25 µM, 0 h): 0%
Mean completely Immotile (%) (D. immitis microfilariae; 25 µM, 24 h): 4.67%
Mean completely Immotile (%) (D. immitis microfilariae; 25 µM, 48 h): 10.17%
Mean completely Immotile (%) (D. immitis microfilariae; 25 µM, 72 h): 25%
Mean completely Immotile (%) (D. immitis microfilariae; 25 µM, 96 h): 38.33%
Mean completely Immotile (%) (D. immitis microfilariae; 25 µM, 120 h): 48.67%
Mean completely Immotile (%) (D. immitis microfilariae; 50 µM, 0 h): 0%
Mean completely Immotile (%) (D. immitis microfilariae; 50 µM, 24 h): 12%
Mean completely Immotile (%) (D. immitis microfilariae; 50 µM, 48 h): 26.33%
Mean completely Immotile (%) (D. immitis microfilariae; 50 µM, 72 h): 43.33%
Mean completely Immotile (%) (D. immitis microfilariae; 50 µM, 96 h): 64%
Mean completely Immotile (%) (D. immitis microfilariae; 75 µM, 0 h): 0%
Mean completely Immotile (%) (D. immitis microfilariae; 75 µM, 24 h): 24.33%
Mean completely Immotile (%) (D. immitis microfilariae; 75 µM, 48 h): 87.33%
Mean completely Immotile (%) (D. immitis microfilariae; 75 µM, 72 h): 96.67%
Mean completely Immotile (%) (D. immitis microfilariae; 75 µM, 96 h): 100%
Mean completely Immotile (%) (D. immitis microfilariae; 75 µM, 120 h): 100%
Mean completely Immotile (%) (D. immitis microfilariae; 100 µM, 0 h): 0%
Mean completely Immotile (%) (D. immitis microfilariae; 100 µM, 24 h): 55.33%
Mean completely Immotile (%) (D. immitis microfilariae; 100 µM, 48 h): 94.33%
Mean completely Immotile (%) (D. immitis microfilariae; 100 µM, 72 h): 100%
Mean completely Immotile (%) (D. immitis microfilariae; 100 µM, 96 h): 100%
Mean completely Immotile (%) (D. immitis microfilariae; 100 µM, 120 h): 100%
EC50 (D. immitis microfilariae; 96 h post-treatment, read-out: Anti-parasitic EC50): 32.2 µM
Completely Immotile Microfilariae (%) (D. immitis microfilariae; 25 µM, 0 h): 0%
Completely Immotile Microfilariae (%) (D. immitis microfilariae; 25 µM, 24 h): 5% and 3% and 6%
Completely Immotile Microfilariae (%) (D. immitis microfilariae; 25 µM, 48 h): 10% and 8% and 12.5%
Completely Immotile Microfilariae (%) (D. immitis microfilariae; 25 µM, 72 h): 28% and 22% and 25%
Completely Immotile Microfilariae (%) (D. immitis microfilariae; 25 µM, 96 h): 41% and 36% and 38% and 50%
Completely Immotile Microfilariae (%) (D. immitis microfilariae; 25 µM, 120 h): 50% and 44% and 52%
Completely Immotile Microfilariae (%) (D. immitis microfilariae; 50 µM, 0 h): 0%
Completely Immotile Microfilariae (%) (D. immitis microfilariae; 50 µM, 24 h): 10% and 12% and 14%
Completely Immotile Microfilariae (%) (D. immitis microfilariae; 50 µM, 48 h): 25% and 23% and 31%
Completely Immotile Microfilariae (%) (D. immitis microfilariae; 50 µM, 72 h): 40% and 44% and 46%
Completely Immotile Microfilariae (%) (D. immitis microfilariae; 50 µM, 96 h): 60% and 64% and 68% and 100%
Completely Immotile Microfilariae (%) (D. immitis microfilariae; 50 µM, 120 h): 100%
Completely Immotile Microfilariae (%) (D. immitis microfilariae; 75 µM, 0 h): 0%
Completely Immotile Microfilariae (%) (D. immitis microfilariae; 75 µM, 24 h): 21% and 28% and 24%
Completely Immotile Microfilariae (%) (D. immitis microfilariae; 75 µM, 48 h): 85% and 90% and 87%
Completely Immotile Microfilariae (%) (D. immitis microfilariae; 75 µM, 72 h): 95% and 97% and 98%
Completely Immotile Microfilariae (%) (D. immitis microfilariae; 75 µM, 96 h): 100%
Completely Immotile Microfilariae (%) (D. immitis microfilariae; 75 µM, 120 h): 100%
Completely Immotile Microfilariae (%) (D. immitis microfilariae; 100 µM, 0 h): 0%
Completely Immotile Microfilariae (%) (D. immitis microfilariae; 100 µM, 24 h): 50% and 56% and 60%
Completely Immotile Microfilariae (%) (D. immitis microfilariae; 100 µM, 48 h): 93% and 95%
Completely Immotile Microfilariae (%) (D. immitis microfilariae; 100 µM, 72 h): 100%
Completely Immotile Microfilariae (%) (D. immitis microfilariae; 100 µM, 96 h): 100%
Completely Immotile Microfilariae (%) (D. immitis microfilariae; 100 µM, 120 h): 100%
effect on microfilariae (D. immitis microfilariae): killing effect
IC50 (mammalian cells): 302 µM
